This is an account of results in patent US12391686B2, “Compounds and uses thereof” (Foghorn Therapeutics Inc., priority 2019, dated 2025).

The target in this experiment is T1, Nanoluciferase-BRD9 fusion protein (3×FLAG-NLuc-BRD9) in SYO-1 cells (Homo sapiens, UniProt Q9H8M2).
T1 construct: expressed in transfected cells; host or cells: SYO-1
T1 sequence (Q9H8M2 1-597): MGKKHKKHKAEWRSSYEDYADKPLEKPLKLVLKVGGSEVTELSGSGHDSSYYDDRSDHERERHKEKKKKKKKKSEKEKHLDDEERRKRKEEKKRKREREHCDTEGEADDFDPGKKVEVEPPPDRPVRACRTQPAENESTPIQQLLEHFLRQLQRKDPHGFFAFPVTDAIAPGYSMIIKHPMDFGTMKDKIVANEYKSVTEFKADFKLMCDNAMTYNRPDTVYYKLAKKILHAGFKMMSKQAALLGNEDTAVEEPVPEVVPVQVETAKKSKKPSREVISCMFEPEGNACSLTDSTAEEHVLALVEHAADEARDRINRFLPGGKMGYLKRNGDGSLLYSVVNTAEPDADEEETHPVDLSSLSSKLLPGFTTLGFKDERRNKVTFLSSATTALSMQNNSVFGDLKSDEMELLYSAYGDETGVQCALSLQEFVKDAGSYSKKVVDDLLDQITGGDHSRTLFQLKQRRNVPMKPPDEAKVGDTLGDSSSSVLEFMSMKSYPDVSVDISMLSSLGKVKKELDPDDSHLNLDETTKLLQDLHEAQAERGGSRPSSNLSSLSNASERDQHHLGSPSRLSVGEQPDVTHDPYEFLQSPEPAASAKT
As to the kind of experiment: SYO1 BRD9 NanoLuc Degradation Assay. The format is cell-based. The conditions noted are these: SYO-1 cells expressing 3×FLAG-NLuc-BRD9, 6 hours incubation, 1 μM top dose, read-out: SYO1 BRD9-NanoLuc degradation IC50. In a few lines:
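Stable 3×FLAG-NLuc-BRD9 SYO-1 line, 8000 cells/well, dosed day 1 with 10-point 3-fold dilutions (1 μM final top, duplicates) for 6 h. NanoLuc bioluminescence read with Nano-Glo; % inhibition relative to DMSO (high) and 1 μM reference BRD9 degrader (low) controls.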

Like-named read-outs stand apart in the source and are kept apart here.

Turning to `COc1cc(-c2cn(C)c(=O)c3cnc(N4CCC4)cc23)cc(OC)c1CN1CCC(CN2CCC3(CN(c4ccc5c(c4)C(=O)N(C4CCC(=O)NC4=O)C5)C3)C(F)(F)C2)CC1` (stereo not shown) [Compound D227], where the note is “Table 6C”, the DC50 is less than 10 nM. On the same count and under the same terms, the result for `COc1cc(-c2cn(C)c(=O)c3cnc(N(C)C)cc23)cc(OC)c1CN1CC2(CC(N3CCN(C4CCC(=O)NC4=O)C(=O)C3)C2)C1` (stereo not shown) [Compound D249] reads 100 to 1000 nM; that for `[2H]C([2H])([2H])n1cc(-c2cc(OC)c(CN3CC(Oc4ccc5c(c4)CN(C4CCC(=O)NC4=O)C5=O)C3)c(OC)c2)c2cc(OC)ncc2c1=O` (stereo not shown) [Compound D242], less than 10 nM.

Take `COc1cc(-c2cn(C)c(=O)c3cnc(N(C)C)cc23)cc(OC)c1CN1CC2CN(C(=O)CCOCCOc3ccc4c(c3)C(=O)N(C3CCC(=O)NC3=O)C4=O)CCC21` (stereo not shown) [Compound D33]: under “Table 6B”, the DC50 was less than 10 nM. `COc1cc(-c2cn(C)c(=O)c3cnc(N(C)C)cc23)cc(OC)c1CN1CCN(C2(COc3ccc4c(c3)C(=O)N(C3CCC(=O)NC3=O)C4=O)CC2)CC1` (stereo not shown) [Compound D109]: where the note is “Table 6B”, the DC50 was less than 10 nM. Turning to `COc1cc(-c2cn(C)c(=O)c3cnc(C4CC4)cc23)cc(OC)c1CN1CCC(CCN2CCN(c3ccc4c(c3)C(=O)N(C3CCC(=O)NC3=O)C4=O)CC2)CC1` (stereo not shown) [Compound D304], for the setting “Table 6C”, the DC50 is less than 10 nM. Turning to `[2H]C([2H])([2H])n1cc(-c2cc(OC)c(CN3CCN(CCC4CCN(c5ccc6c(c5)CN(C5CCC(=O)NC5=O)C6=O)CC4)CC3)c(OC)c2)c2cc(OC)ncc2c1=O` (stereo not shown) [Compound D230], the DC50 (Table 6C) was less than 10 nM. The same measure, in the same setting: the result for `COc1cc(-c2cn(C)c(=O)c3cnc(N4CCOCC4)cc23)cc(OC)c1CN1CC(Oc2ccc3c(c2)CN(C2CCC(=O)NC2=O)C3=O)C1` (stereo not shown) [Compound D314] reads less than 10 nM; that for `COc1cc(-c2cn(C)c(=O)c3cnc(N(C)C)cc23)cc(OC)c1C1CCN(c2ccc3c(c2)C(=O)N(C2CCC(=O)NC2=O)C3)CC1` (stereo not shown) [Compound D265], less than 10 nM. As to `COc1cc(-c2cn(C)c(=O)c3cnc(N4CCOCC4)cc23)cc(OC)c1CN1CC(Oc2ccn3c(=O)n(C4CCC(=O)NC4=O)nc3c2)C1` (stereo not shown) [Compound D144], the DC50 (Table 6B) was less than 10 nM. For `COc1cc(-c2cn(C)c(=O)c3cnc(C4CC4)cc23)cc(OC)c1CN1CCC2(CC1)CN(c1ccc3c(c1)CN(C1CCC(=O)NC1=O)C3=O)C2` (stereo not shown) [Compound D220], the DC50 (Table 6C) is less than 10 nM.

Regarding `COc1cc(-c2cn(C)c(=O)c3cnc(N(C)C)cc23)cc(OC)c1CN1CC(C#Cc2ccc3c(c2)C(=O)N(C2CCC(=O)NC2=O)C3)C1` (stereo not shown) [Compound D267], the DC50 (Table 6C) was less than 10 nM. Turning to `COc1cc2c(-c3cc(OC)c(CN4CCN(CCC5CCN(c6ccc7c(c6)C(=O)N(C6CCC(=O)NC6=O)C7)CC5)CC45CCC5)c(OC)c3)cn(C)c(=O)c2cn1` (stereo not shown) [Compound D258], the DC50 (Table 6C) was less than 10 nM.

As for `COc1cc(-c2cn(C)c(=O)c3cnc(N4CCOCC4)cc23)cc(OC)c1CN1CCN(c2ccc3c(c2)C(=O)N(C2CCC(=O)NC2=O)C3=O)CC1` (stereo not shown) [Compound D141], the DC50 (Table 6B) was less than 10 nM.

On to `COc1cc(-c2cn(C3CC3)c(=O)c3cnc(N4CCC4)cc23)cc(OC)c1CN1CCC(N2CCN(c3ccc4c(c3)CN(C3CCC(=O)NC3=O)C4=O)CC2)CC1` (stereo not shown) [Compound D122], for which the DC50 (Table 6B) is less than 10 nM. As for `COc1cc(-c2cn(C)c(=O)c3cnc(N(C)C)cc23)cc(OC)c1CN1CC(C(C)(C)N2CCC3(CC2)CN(c2ccc4c(c2)C(=O)N(C2CCC(=O)NC2=O)C4=O)C3)C1` (stereo not shown) [Compound D97], under “Table 6B”, the DC50 was less than 10 nM. In the case of `COc1cc(-c2cn(C)c(=O)c3cnc(N(C)C)cc23)cc(OC)c1CN1CC(Oc2ccn3c(=O)n(C4CCC(=O)NC4=O)nc3c2)C1` (stereo not shown) [Compound D138], the DC50 (Table 6B) is less than 10 nM. In the case of `[2H]C([2H])([2H])n1cc(-c2cc(OC)c(CN3CC(Oc4ccc5c(c4)C(=O)N(C4CCC(=O)NC4=O)C5)C3)c(OC)c2)c2cc(C3CC3)ncc2c1=O` (stereo not shown) [Compound D247], the DC50 (Table 6C) was less than 10 nM. `COc1cc(-c2cn(C)c(=O)c3cnc(N(C)C)cc23)cc(OC)c1CN1CC(S(=O)(=O)NCCN2CCN(c3ccc4c(c3)C(=O)N(C3CCC(=O)NC3=O)C4=O)CC2)C1` (stereo not shown) [Compound D32]: for the setting “Table 6B”, the DC50 is less than 10 nM.
